For 1 molecule, BinnedMaxEfficacy results are on record in patent US11578062B2, “Solid forms of (R)-1(2,2-difluorobenzo[d][1,3]dioxol-5-yl)-N-(1-(2,3-dihydroxypropyl)-6-fluoro-2-(1-hydroxy-2-methylpropan-2-yl)-1H-indol-5-yl)cyclopropanecarboxamide” (Vertex Pharmaceuticals Incorporated, priority 2010, dated 2023).

The target in the experiment is T1, ΔF508-CFTR (Homo sapiens, UniProt P13569, DEL508-508).
T1 construct: expressed in transfected cells
As to the kind of experiment: Membrane potential optical assay for ΔF508-CFTR correction (FRET voltage-sensor dyes, VIPR). It counts as cell-based. The settings on record: PercentActivity; NIH3T3 mouse fibroblasts stably expressing ΔF508-CFTR; procedures described above. The text has this: Assays for Detecting and Measuring ΔF508-CFTR Correction Properties of Compounds
Membrane potential optical methods for assaying ΔF508-CFTR modulation properties of compounds
The optical membrane potential assay utilized voltage-sensitive FRET sensors described by Gonzalez and Tsien (See, Gonzalez, J. E. and R. Y. Tsien (1995) “Voltage sensing by fluorescence resonance energy transfer in single cells” Biophys J 69(4): 1272-80, and Gonzalez, J. E. and R. Y. Tsien (1997) “Improved indicators of cell membrane potential that use fluorescence resonance energy transfer” Chem Biol 4(4): 269-77) in combination with instrumentation for measuring fluorescence changes such as the Voltage/Ion Probe Reader (VIPR) (See, Gonzalez, J. E., K. Oades, et al. (1999) “Cell-based assays and instrumentation for screening ion-channel targets” Drug Discov Today 4(9): 431-439).
These voltage sensitive assays are based on the change in fluorescence resonant energy transfer (FRET) between the membrane-soluble, voltage-sensitive dye, DiSBAC2(3), and a fluorescent phospholipid, CC2-DMPE, which is attached to the outer leaflet of the plasma membrane and acts as a FRET donor. […] The changes in fluorescence emission were monitored using VIPR™ II, which is an integrated liquid handler and fluorescent detector designed to conduct cell-based screens in 96- or 384-well microtiter plates. […]

T1 sequence (P13569 with tags, fused parts or gaps DEL508-508): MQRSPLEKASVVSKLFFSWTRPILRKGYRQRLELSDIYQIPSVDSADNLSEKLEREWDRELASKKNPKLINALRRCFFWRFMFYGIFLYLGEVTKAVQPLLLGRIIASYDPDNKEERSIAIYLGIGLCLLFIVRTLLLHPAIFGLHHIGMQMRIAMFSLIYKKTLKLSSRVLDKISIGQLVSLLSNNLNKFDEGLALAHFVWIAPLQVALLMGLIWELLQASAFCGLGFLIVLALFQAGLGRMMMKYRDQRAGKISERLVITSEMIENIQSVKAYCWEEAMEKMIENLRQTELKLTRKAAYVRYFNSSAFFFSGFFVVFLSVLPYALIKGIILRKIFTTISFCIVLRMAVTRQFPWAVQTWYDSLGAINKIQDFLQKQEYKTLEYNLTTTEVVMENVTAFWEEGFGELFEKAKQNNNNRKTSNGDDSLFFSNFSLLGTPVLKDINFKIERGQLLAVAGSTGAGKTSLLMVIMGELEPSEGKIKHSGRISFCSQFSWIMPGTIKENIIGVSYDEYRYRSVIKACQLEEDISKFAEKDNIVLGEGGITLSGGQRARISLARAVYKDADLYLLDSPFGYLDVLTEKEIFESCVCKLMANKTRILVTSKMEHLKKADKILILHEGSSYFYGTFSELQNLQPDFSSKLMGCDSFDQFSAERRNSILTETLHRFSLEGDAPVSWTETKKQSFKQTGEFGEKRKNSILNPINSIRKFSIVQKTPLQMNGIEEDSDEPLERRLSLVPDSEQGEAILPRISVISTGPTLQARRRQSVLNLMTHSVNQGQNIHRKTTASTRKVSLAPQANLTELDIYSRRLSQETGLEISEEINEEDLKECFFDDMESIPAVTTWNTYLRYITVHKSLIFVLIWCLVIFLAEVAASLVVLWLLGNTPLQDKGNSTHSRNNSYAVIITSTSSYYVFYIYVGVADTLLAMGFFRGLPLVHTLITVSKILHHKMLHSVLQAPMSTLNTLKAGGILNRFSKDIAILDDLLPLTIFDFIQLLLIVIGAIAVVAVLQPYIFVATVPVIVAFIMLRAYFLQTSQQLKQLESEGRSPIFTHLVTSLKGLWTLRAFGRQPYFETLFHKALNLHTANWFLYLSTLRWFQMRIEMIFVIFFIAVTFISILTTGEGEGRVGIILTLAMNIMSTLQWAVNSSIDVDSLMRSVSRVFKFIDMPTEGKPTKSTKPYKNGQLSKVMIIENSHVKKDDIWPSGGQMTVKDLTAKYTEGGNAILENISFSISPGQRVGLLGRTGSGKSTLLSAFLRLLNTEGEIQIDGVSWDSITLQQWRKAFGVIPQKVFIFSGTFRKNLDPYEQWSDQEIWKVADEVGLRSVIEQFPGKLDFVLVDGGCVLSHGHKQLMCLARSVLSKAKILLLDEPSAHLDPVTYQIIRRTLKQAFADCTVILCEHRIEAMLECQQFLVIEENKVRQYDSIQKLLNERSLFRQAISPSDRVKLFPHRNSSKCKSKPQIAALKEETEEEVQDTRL

As for `CC(C)(CO)c1cc2cc(NC(=O)C3(c4ccc5c(c4)OC(F)(F)O5)CC3)c(F)cc2n1C[C@@H](O)CO` [Compound 1, (R)-1-(2,2-difluorobenzo[d][1,3]dioxol-5-yl)-N-(1-(2,3-dihydroxypropyl)-6-fluoro-2-(1-hydroxy-2-methylpropan-2-yl)-1H-indol-5-yl)cyclopropanecarboxamide], the BinnedMaxEfficacy result is listed as “+++ (PercentActivity Bins: + <= 25.0 < ++ <= 100.0 < +++)”.
